From ChEMBL document CHEMBL1201862, “PubChem BioAssay data set” (2004)
Activity calls are given as the source filed them.

What was measured:
[1] = viability loss in HepG2 hepatoma cells – cell-based, ATP luminescence, cherry-pick, activator set 2, cytotoxicity control, dose response (AID 1053143); type: functional
[2] = biological target: T1, Estrogen receptor (Homo sapiens, UniProt P03372);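 also: potency for inhibiting coactivator peptide recruitment to the receptor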
T1 sequence (P03372 whole entry): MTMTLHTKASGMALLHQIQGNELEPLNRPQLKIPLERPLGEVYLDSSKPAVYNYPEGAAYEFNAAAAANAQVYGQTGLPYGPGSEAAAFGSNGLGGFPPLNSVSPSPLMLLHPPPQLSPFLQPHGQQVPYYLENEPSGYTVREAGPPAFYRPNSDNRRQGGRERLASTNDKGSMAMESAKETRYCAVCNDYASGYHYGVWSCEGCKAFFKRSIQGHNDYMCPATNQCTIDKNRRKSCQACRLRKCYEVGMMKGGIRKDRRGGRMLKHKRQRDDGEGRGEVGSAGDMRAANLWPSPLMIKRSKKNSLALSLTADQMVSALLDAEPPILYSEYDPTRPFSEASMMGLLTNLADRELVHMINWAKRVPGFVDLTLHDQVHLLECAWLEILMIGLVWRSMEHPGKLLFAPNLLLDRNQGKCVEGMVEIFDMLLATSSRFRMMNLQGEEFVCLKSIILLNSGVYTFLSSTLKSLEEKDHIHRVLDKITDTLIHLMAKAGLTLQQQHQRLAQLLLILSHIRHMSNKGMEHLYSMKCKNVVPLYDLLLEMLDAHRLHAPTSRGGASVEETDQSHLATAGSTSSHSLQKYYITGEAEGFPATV

[3] = biological target: Cytochrome P450 3A4 (Homo sapiens, UniProt P08684); conditions: Potency;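 also: confirmatory qHTS run detecting inhibitors and substrates of CYP3A4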
Cytochrome P450 3A4, sequence (P08684 whole entry): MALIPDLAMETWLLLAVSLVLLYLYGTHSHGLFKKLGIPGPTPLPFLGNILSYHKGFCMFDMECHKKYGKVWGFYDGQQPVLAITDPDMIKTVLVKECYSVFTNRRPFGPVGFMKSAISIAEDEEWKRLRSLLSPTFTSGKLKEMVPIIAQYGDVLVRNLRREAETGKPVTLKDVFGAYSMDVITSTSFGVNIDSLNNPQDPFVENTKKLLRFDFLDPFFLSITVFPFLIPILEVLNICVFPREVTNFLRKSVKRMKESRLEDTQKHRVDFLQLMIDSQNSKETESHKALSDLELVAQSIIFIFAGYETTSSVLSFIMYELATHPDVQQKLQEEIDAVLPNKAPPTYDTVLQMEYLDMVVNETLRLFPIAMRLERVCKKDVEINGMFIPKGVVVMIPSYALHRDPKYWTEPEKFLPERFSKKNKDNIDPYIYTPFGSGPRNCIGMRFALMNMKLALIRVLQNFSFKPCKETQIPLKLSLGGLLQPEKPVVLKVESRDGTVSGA

[4] = cells
[5] = Trypanosoma cruzi growth suppression in host cells – NIH3T3 host cells, beta-gal luminescence, confirmation (AID 2044); type: functional, cell-based;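 also: intracellular parasites grown in NIH/3T3 mouse fibroblasts as host cells; luminescent beta-galactosidase reporter signal from transgenic T. cruzi replicating inside host cells; inhibitors lower the luminescence signal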
[6] = NIH3T3 cell viability loss – ATP luminescence, mouse fibroblasts, counter-screen, dose response (AID 2010); type: functional, cell-based;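 also: cells exposed to compound for about 90 hours before reading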
[7] = biological target: T2, fMet-Leu-Phe receptor (Homo sapiens, UniProt P21462); assay: formyl peptide receptor binders – dose response (AID 519); type: functional
T2 sequence (P21462 whole entry): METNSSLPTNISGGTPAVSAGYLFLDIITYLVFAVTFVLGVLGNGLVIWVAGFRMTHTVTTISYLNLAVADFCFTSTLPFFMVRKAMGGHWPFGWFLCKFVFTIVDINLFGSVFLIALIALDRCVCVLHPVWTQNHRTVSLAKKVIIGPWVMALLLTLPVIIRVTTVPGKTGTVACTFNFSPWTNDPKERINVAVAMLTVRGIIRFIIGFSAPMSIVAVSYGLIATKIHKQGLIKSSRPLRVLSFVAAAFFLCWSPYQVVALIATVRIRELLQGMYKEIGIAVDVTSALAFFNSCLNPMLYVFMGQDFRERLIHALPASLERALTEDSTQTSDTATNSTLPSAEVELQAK

[8] = cells; type: functional, cell-based
[9] = cells; type: functional, cell-based; remark: listed apart in the source
[10] = inhibition of ADAM10 peptide cleavage – biochemical, FRET peptide substrate, recombinant human ADAM10, selectivity assay for ADAM17 exosite inhibitor project, dose response (AID 743259);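 also: ADAM10 enzyme cleaving a FRET peptide substrate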
[11] = biological target: Disintegrin and metalloproteinase domain-containing protein 17 (Homo sapiens, UniProt P78536); assay: exosite inhibitors of ADAM17, dose response, biochemical (AID 743260)
Disintegrin and metalloproteinase domain-containing protein 17, sequence (P78536 whole entry, the tested form may be a part): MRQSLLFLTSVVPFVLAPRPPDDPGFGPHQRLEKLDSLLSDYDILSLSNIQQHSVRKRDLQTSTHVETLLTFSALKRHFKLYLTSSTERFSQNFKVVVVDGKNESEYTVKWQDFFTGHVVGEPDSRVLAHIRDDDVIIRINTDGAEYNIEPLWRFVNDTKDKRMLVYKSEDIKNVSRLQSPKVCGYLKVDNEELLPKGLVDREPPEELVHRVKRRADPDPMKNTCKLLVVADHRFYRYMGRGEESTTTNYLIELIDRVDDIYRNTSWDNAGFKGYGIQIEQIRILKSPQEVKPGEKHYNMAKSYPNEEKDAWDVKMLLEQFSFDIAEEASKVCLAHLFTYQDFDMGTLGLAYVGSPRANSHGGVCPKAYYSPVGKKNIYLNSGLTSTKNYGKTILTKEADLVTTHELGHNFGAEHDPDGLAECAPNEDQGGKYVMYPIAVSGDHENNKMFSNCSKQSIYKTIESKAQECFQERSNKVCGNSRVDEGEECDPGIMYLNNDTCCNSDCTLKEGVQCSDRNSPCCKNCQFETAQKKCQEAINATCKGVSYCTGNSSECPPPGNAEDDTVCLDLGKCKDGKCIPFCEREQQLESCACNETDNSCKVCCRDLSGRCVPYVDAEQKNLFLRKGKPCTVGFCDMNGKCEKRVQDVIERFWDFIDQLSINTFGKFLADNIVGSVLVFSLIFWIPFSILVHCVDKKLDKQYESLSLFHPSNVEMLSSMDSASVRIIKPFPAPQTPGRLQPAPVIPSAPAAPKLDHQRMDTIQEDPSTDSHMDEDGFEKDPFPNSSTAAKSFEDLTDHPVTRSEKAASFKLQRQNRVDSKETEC

[12] = biological target: T3, Calpain-2 catalytic subunit (Sus scrofa, UniProt P43367); assay: m-calpain protease blockers, concentration series – biochemical, fluorogenic peptide substrate, dose response (AID 1420); type: functional
T3 sequence (P43367 whole entry): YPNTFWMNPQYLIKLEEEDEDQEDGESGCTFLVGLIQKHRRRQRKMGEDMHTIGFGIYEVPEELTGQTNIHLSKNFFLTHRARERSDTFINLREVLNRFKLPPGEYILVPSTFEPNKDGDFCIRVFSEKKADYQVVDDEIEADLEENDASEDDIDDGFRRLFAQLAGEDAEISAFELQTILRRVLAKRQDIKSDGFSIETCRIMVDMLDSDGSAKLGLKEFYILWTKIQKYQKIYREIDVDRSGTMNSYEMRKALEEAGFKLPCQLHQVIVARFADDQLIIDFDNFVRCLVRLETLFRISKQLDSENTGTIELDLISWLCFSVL

[13] = biological target: T4, Corticotropin-releasing factor receptor 2/Corticotropin-releasing factor-binding protein (Homo sapiens, UniProt P24387+Q13324); assay: activators of CRF receptor 2 with binding protein – uHTS hits, confirmation (AID 602473); type: functional; conditions: read-out: EC50_Mean
T4 sequence (Q13324 whole entry): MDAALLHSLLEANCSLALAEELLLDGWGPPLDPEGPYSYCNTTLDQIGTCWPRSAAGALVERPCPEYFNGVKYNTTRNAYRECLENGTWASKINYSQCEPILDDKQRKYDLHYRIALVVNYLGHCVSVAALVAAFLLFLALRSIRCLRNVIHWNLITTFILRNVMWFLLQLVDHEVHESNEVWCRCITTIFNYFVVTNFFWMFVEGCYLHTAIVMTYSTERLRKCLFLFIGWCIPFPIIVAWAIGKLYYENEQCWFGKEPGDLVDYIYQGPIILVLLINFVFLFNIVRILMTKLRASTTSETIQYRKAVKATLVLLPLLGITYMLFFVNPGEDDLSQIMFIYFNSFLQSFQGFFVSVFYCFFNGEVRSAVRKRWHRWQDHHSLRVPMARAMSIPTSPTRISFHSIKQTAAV
T4 sequence (P24387 whole entry): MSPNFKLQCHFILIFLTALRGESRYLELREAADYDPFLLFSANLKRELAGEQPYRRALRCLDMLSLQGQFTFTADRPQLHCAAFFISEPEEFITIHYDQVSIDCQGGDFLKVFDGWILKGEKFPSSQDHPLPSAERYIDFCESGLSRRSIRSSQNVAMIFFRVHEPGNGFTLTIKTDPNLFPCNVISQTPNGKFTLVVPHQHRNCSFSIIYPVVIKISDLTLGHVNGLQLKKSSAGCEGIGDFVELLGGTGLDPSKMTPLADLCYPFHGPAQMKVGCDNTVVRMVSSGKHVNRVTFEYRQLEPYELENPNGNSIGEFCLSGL

[14] = blockers of CRF-binding protein–CRF-R2 complex – cell-based, uHTS hits, 384-well, dose response (AID 651639); type: functional, Homo sapiens; conditions: read-out: IC50_Mean
[15] = biological target: T4, Corticotropin-releasing factor receptor 2/Corticotropin-releasing factor-binding protein; assay: Dose Response confirmation of uHTS hits for small molecule antagonists of the CRF-binding protein and CRF-R2 receptor complex.; type: functional; conditions: read-out: IC50_Mean
[16] = THP-1 cell cytotoxicity, dose response, cytotoxicity control for non-replicating M. tuberculosis project (AID 489025); type: functional
[17] = Vero E6 cell cytotoxicity, dose response, cytotoxicity control for non-replicating M. tuberculosis project, secondary assay (AID 492998); type: functional, VeroE6; conditions: Vero C1008
[18] = test system: Streptococcus; assay: GAS UMAA2166 growth inhibition – luminescence, BacTiterGlo, counter-screen for streptokinase expression inhibitor project, dose response (AID 1915); type: functional, organism-based;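 also: potency for reduction of bacterial viability or growth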
[19] = test system: INS1; assay: INS-1E survival protection against cytokine death – cell-based, luminescence, retest, dose response (AID 449756); type: functional; conditions: Rattus norvegicus;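 also: cell death triggered by IL-1 beta plus TNF-alpha plus IFN-gamma mixture; protective hits raise ATP signal compared with cytokine alone wells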
[20] = cells; type: functional
[21] = general mammalian cell viability loss – activator set, cherry-pick, cytotoxicity control for miR-122 modulator project, dose response (AID 720690); type: functional, cell-based;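 also: HEK293T human cells scored for general mammalian cytotoxicity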
[22] = general mammalian cell viability loss – inhibitor set, cherry-pick, set 2, cytotoxicity control for miR-122 modulator project, dose response (AID 720697); type: functional, cell-based
[23] = test system: Streptococcus sp. 'group A'; assay: Streptococcus pyogenes SK(-)GAS viability under kanamycin – luminescence, BacTiterGlo, confirmation, counter-screen for streptokinase expression inhibitor project, dose response (AID 1900); type: functional, organism-based
[24] = biological target: Paired box protein Pax-8 (Homo sapiens, UniProt Q06710); assay: PAX8 transcriptional activity inhibition in RMG-I – RMG-I cells, luciferase, cherry-pick, dose response (AID 687027); type: functional, cell-based;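 also: luciferase reporter driven by Pax8 target thyroperoxidase promoter measured by SteadyGlo luminescence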
Paired box protein Pax-8, sequence (Q06710 whole entry): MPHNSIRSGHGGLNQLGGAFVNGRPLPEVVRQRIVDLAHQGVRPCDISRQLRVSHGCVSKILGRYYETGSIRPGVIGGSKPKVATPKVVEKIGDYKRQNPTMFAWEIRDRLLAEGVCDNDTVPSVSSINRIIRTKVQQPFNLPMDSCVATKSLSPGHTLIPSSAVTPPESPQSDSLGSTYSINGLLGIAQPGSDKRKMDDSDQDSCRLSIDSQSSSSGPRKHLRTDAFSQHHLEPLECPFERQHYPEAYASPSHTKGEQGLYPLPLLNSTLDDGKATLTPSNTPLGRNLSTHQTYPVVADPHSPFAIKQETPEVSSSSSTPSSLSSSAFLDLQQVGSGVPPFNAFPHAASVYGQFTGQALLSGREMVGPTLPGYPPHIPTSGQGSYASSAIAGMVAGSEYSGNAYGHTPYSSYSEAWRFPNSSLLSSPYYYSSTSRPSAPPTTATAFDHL

[25] = OVCAR-3 cell viability loss – plate reader, dry powder samples, PAX8 inhibitor project, dose response (AID 743044); type: functional, cell-based
[26] = toxicity toward immortalized ovarian surface epithelium – cell-based, plate reader, dry powder samples, cytotoxicity control for PAX8 inhibitor project, dose response (AID 743045); type: functional
[27] = OVCAR8 cell viability loss – plate reader, dry powder samples, PAX8 project, dose response (AID 743197); type: functional, cell-based; conditions: OVCAR-8
[28] = Reduced DLD-1 viability, concentration-response, CellTiter-Glo luminescence (AID 1117352); type: functional
[29] = cytotoxicity toward HCT116 cells – cell-based, CellTiter-Glo luminescence, IC50, dose response (AID 1117332); type: functional; conditions: HCT-116
[30] = SNU-C1 cell viability reduction, dose response, CellTiter-Glo luminescence (AID 1117323); type: functional, cell-based
[31] = cytotoxicity toward Colo320 cells – cell-based, CellTiter-Glo luminescence, IC50, dose response (AID 1117334); type: functional; conditions: COLO 320
[32] = RKO cell viability reduction, dose response, CellTiter-Glo luminescence (AID 1117322); type: functional
[33] = HCT116 cell viability decrease, GSK3B pretreatment – CellTiter-Glo, IC50, dose response (AID 1117339); type: functional; conditions: HCT-116

Cc1ccc(C(=O)Nc2nc3ccc(S(C)(=O)=O)cc3s2)o1
AC50 [1]: 26 µM (active)

NC(=O)c1c(NC(=O)c2cccs2)sc2c1CCCCCC2
IC50 [2]: 25.9 µM (active)

COC(=O)C/C=C/C(C)C(OCc1cccc(-c2ccccc2)c1)C1CCCCC1 (stereo not given)
AC50 [3]: 3.98 µM (inconclusive)

CSc1ccc(CN2CCN(Cc3ccc([N+](=O)[O-])cc3)CC2)cc1
EC50 [4]: 0.135 µM (active)
EC50 [5]: < 0.1 µM (active)
EC50 [6]: > 60 µM (inconclusive)

COc1ccc(-n2c(Cc3cccn3C)nnc2SCC(=O)Nc2ccc(Cl)cc2)cc1
Ki [7]: 32.9 µM (inactive)

Cc1csc2nc(CCNS(=O)(=O)c3ccc4c(c3)OCCO4)cn12
IC50 [2]: 17.1 µM (active)

COc1ccc(CCNC(=O)c2cc(-c3ccco3)on2)cc1OC
EC50 [8]: 12.5 µM (active)
AC50 [1]: 26 µM (active)
EC50 [9]: > 350 µM (not active)

Cc1ccc(C(C(=O)NC2CCCCC2)N(Cc2ccccc2)C(=O)Cc2c[nH]c3ccccc23)o1 (stereo not given)
IC50 [10]: 10.3 µM (inactive)
IC50 [11]: > 69.5 µM (inactive)

COc1cccc(CNc2ccc([N+](=O)[O-])cc2C)c1
IC50 [12]: 41 µM (not active)
IC50 [10]: 27.4 µM (inactive)
EC50 [13]: > 53 µM (inactive)
IC50 [11]: > 69.5 µM (inactive)
IC50 [14]: 20 µM (active)
IC50 [15]: 9.05 µM (active)

CC(C)CN(CC(C)C)C(=O)CS(=O)(=O)Cc1ccccc1
Ki [7]: 8.5 µM (active)

O=C(/C=C\c1ccco1)Oc1cccc2cccnc12
AC50 [1]: 26 µM (active)

O=C(CSc1nc2ccccc2c(=O)n1-c1ccccc1Cl)Nc1cccc(S(=O)(=O)N2CCOCC2)c1
IC50 [10]: > 69.5 µM (inactive)
IC50 [11]: > 69.5 µM (inactive)

COc1ccccc1Oc1c(C)oc2cc(OC(=O)c3ccco3)ccc2c1=O
Ki [7]: 19.4 µM (inactive)

O=C(Nc1ccncc1)Nc1ccc(Cl)cc1Cl
EC50 [4]: 0.079 µM (active)
EC50 [5]: < 0.1 µM (active)
EC50 [6]: > 60 µM (not active)

Oc1ccccc1/C=N/Nc1nc2ccccc2o1
CC50 [16]: 1.68 µM (active)
CC50 [17]: 2.59 µM (active)
EC50 [8]: > 350 µM (not active)
EC50 [18]: 4.17 µM (active)
EC50 [5]: 2.92 µM (active)
AC50 [19]: 1.59 µM (active)
EC50 [6]: > 60 µM (not active)
EC50 [9]: 4.02 µM (active)
IC50 [20]: 33.3 µM (active)
AC50 [21]: 5.79 µM (active)
AC50 [22]: 2.53 µM (active)
EC50 [23]: 1.9 µM (active)

O=S(=O)(c1ccccc1F)N1CC[C@H]2[C@H](CO)Nc3ccc(C4=CCCCC4)cc3[C@H]21
AC50 [24]: 6.12 µM (active)
AC50 [25]: 18.4 µM (active)
AC50 [26]: 32.9 µM (active)
AC50 [27]: 26.7 µM (active)

O=C(OCc1ccccc1)c1cccnc1 [BENZYL NICOTINATE]
IC50 [28]: > 20 µM (inactive)
IC50 [29]: > 20 µM (inactive)
IC50 [30]: > 20 µM (inactive)
IC50 [31]: > 20 µM (inactive)
IC50 [32]: > 20 µM (inactive)
IC50 [33]: > 20 µM (inactive)

C=C(Cl)CSC(=S)N(CC)CC [SULFALLATE]
AC50 [3]: 10 µM (inconclusive)
